In brackets after ≈: the same amount, converted by molar mass.

For one data set, the system named is TGF-β receptor. Nature of the data set: TGF-β receptor binding antagonism assay ([125I]TGF-β1) in Balb/c 3T3 cells. The conditions noted are these: for Inhibition Rate (%): 10 μg/ml, 50 pmol/L [125I]TGF-β1. How it is done: Balb/c 3T3 cells were seeded in 24 well-plate and cultured in Dulbecco's modified Eagle's medium (DMEM) supplemented with 10% fetal bovine serum, in 37° C. and 5% CO2, for 2-4 days. When cells were at a near-confluent, medium was changed to the binding buffer (50 mmol/L HEPES containing NaCl, KCl, MgSO4 and CaCl2). The assay was initiated by addition of 50 pmol/L [^125I]TGF-β1 and test compounds. After incubation for 210-240 minutes, the medium was removed, and cells were washed with ice-cold binding buffer. Non-specific bindings in the presence of 10 nmol/L TGF-β1 were determined. The cells were then solubilized using buffer containing Triton X-100 and the radioactivity was measured (see Table 4).

The term IC50 denotes the concentration needed to halve the response being measured. Low values mean greater potency in that assay, high ones weaker potency in that assay. A word on the melting point: it is the temperature of the solid-liquid transition. For `COc1ccc2cc(C(=O)Nc3ccc(C(=O)O)c(O)c3)c(=O)oc2c1` [Compound 7, 3-(3′-hydroxy-4′-carboxyphenylamidocarbonyl)-7-methoxy coumarin], the melting point is 279 °C (dec.). For the same compound, in the data set with TGF-β receptor, the IC50 turned out to be 7.8 µg/mL (≈ 22 µM) and the “Inhibition Rate (%)” value came out at 94.2%.

On to `CCc1cc2cc(C(=O)Nc3ccc(C(=O)O)c(O)c3)c(=O)oc2cc1OC` [Compound 26, 3-(3′-hydroxy-4′-carboxy-phenylamidocarbonyl)-6-ethyl-7-methoxy-coumarin], for which the melting point worked out at 266 °C. In the data set on TGF-β receptor, the IC50 was 8.5 µg/mL (≈ 22.2 µM) and the “Inhibition Rate (%)” value worked out at 95.4%.
